We go through five compounds from patent publication US7745575B1 (Cellpep Pharma Inc., priority 2004, dated 2010).

Bridge positions count the residues as written; N and C are the ends. Peptide text beside a SMILES is read from it.

Series [1] in a line: toxicity in vivo, LD50 after intracerebroventricular injection. The following applies: mouse, icv or intrathecal, 20 g C57/BL6 mice. As for the experimental part:
Groups of six to eight mice per dose were injected with 5 μl peptide solution containing 0.1% (w/v) bovine serum albumin and 0.9% (w/v) NaCl. The LD50 values are set out in Table 5.

The target of series [2] is mKv1.3 (Mus musculus, UniProt P16390). In words: patch-clamp whole-cell recording, K+ current block. The format is cell-based. As for the experimental part:
(§1) Electrophysiological experiments were carried out at 22-24° C. using the patch-clamp whole-cell recording mode. Cells were bathed with mammalian Ringer's solution (in mM): 160 NaCl, 4.5 KCl, 2 CaCl2, 1 MgCl2, and 10 HEPES (pH 7.4 with NaOH), with an osmolarity of 290-320 mOsm. […] A syringe-driven perfusion device was used to exchange the external recording bath solution. Two internal pipette solutions were used, one for measuring voltage-gated K^+ currents that contained (in mM): 155 KF, 2 MgCl2, 10 HEPES, and 10 EGTA (pH 7.2 with KOH), with an osmolarity of 290-320 mOsm and another for measuring Ca^2+-activated K^+ currents that contained (in mM): 135 K-aspartate, 8.7 CaCl2, 2 MgCl2, 10 EGTA, 10 HEPES (pH 7.2 with KOH), with an osmolarity of 290-320 mOsm. A free [Ca^2+]i of 1 μM was calculated. All currents through voltage-gated K^+ channels were elicited by 200 ms depolarising voltage steps from −80 to +40 mV. Potassium currents through KCa1.1, KCa2.1 and KCa3.1 were elicited by 1 μM internal [Ca^2+]i and 400 ms voltage ramps from −120 to 0 mV (for KCa3.1 channel and KCa1.1 channel) and from −120 to +40 mV (for KCa2.1 channel). Electrodes were pulled from glass capillaries (Science Products, Germany), and fire-polished to resistances of 2.5-5 MΩ. Membrane currents were measured with an EPC-9 or EPC-10 patch-clamp amplifier (HEKA Elektronik, Lambrecht, Germany) interfaced to a Macintosh computer running acquisition and analysis software (Pulse and PulseFit). When voltage-gated K^+ currents were measured, the capacitive and leak currents were subtracted using a P/10 procedure. Series resistance compensation (>80%) was used for currents above 2 nA. The holding potential was −80 mV in all experiments.
In general terms: Patch clamp records ionic current or voltage across a cell membrane.

The target in series [3] is hKv1.2 (Homo sapiens, UniProt P16389). The series can be described thus: patch-clamp whole-cell recording, K+ current block. It is filed as cell-based. On the procedure:
as §1

Series [4] has as its target mKv1.1 (Mus musculus, UniProt P16388). In words: patch-clamp whole-cell recording, K+ current block. The format is cell-based. On the procedure: as §1
Series [5] addresses hIK1 (KCa3.1) (Homo sapiens, UniProt O15554). The series can be described thus: patch-clamp whole-cell recording, Ca2+-activated K+ current block. It is filed as cell-based. As for the experimental part: as §1
Series [6] addresses T1, hKv3.2 (Homo sapiens, UniProt Q96PR1).
T1 sequence (Q96PR1 1-638): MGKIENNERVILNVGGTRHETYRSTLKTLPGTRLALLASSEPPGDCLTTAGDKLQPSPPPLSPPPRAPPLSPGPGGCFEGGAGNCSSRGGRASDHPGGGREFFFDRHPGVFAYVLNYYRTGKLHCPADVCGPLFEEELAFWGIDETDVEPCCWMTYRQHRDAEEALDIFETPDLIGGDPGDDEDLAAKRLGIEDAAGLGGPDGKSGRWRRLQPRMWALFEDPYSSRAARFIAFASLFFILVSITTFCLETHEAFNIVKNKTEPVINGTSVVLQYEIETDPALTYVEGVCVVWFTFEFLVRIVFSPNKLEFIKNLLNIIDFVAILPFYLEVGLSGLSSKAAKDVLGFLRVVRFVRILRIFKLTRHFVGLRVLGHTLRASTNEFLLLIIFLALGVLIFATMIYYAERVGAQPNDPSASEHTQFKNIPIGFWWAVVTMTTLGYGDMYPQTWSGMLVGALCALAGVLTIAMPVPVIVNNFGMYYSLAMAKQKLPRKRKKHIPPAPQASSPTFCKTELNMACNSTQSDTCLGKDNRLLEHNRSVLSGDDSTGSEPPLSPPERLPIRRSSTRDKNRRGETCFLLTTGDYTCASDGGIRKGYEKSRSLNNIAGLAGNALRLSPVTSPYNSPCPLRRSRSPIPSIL
The series can be described thus: patch-clamp whole-cell recording, K+ current block. It is filed as cell-based. On the procedure: as §1

In series [7] the target is hIK1 (human (only by the printed prefix h)) (UniProt O15554).
Series [8] addresses hKv1.2 (human (only by the printed prefix h)) (UniProt P16389).
For series [9], the target named is hKv3.2 (human (only by the printed prefix h)) (UniProt Q96PR1).
In series [10] the target is mKv1.1 (mouse (only by the printed prefix m)) (UniProt P16388).
The target in series [11] is mKv1.3 (mouse (only by the printed prefix m)) (UniProt P16390).

mKv1.3, sequence (P16390 whole entry, the tested form may be a part): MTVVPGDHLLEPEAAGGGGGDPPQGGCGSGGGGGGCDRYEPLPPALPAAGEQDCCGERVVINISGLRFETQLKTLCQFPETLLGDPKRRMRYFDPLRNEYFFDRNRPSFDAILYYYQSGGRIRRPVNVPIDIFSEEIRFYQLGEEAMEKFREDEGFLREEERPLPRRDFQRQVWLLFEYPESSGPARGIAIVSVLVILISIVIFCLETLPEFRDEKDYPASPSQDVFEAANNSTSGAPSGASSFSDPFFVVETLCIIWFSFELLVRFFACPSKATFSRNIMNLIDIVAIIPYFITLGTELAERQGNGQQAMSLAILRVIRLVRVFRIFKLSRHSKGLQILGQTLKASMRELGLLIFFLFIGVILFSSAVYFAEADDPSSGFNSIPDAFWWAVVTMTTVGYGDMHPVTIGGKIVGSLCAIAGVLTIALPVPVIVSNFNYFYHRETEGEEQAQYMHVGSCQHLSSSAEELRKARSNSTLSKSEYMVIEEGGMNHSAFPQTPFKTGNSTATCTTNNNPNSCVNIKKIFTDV
hIK1 (KCa3.1), sequence (O15554 whole entry): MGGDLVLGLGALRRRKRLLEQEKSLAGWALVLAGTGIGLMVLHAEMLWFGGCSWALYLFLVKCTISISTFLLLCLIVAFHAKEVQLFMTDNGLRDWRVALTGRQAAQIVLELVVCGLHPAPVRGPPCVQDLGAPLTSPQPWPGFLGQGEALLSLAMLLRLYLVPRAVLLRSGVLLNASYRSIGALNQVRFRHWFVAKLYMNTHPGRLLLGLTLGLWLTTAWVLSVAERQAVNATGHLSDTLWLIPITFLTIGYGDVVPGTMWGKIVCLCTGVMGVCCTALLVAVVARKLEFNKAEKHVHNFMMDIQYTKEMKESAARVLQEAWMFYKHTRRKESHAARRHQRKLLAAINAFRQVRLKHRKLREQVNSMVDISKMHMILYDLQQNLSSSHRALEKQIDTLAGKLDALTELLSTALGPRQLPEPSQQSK
mKv1.1, sequence (P16388 whole entry): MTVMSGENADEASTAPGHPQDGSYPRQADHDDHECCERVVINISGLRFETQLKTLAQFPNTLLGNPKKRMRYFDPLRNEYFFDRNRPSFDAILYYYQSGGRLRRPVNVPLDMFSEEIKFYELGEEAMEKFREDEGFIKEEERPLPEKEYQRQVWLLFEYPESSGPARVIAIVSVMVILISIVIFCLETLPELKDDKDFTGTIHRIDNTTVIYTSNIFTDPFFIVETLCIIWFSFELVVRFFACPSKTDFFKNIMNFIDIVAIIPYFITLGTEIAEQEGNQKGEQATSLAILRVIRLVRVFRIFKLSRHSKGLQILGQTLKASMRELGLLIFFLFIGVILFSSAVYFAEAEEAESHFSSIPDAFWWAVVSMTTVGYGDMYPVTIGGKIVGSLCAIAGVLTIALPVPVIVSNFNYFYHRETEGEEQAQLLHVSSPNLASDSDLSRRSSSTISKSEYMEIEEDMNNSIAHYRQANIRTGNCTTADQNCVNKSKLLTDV
hKv1.2, sequence (P16389 whole entry): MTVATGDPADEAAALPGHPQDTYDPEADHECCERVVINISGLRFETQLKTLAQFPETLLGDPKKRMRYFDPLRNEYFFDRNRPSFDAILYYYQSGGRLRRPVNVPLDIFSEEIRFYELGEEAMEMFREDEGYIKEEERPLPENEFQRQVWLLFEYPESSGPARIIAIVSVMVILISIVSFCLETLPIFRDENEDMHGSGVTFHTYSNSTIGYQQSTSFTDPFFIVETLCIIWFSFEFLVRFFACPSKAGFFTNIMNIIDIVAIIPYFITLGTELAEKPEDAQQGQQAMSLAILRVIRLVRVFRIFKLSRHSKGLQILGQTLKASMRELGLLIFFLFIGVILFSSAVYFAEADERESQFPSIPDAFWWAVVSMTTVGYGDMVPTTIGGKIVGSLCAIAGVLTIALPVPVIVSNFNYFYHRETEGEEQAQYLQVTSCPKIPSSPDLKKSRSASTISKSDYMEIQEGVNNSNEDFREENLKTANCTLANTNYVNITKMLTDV

As usually defined, the LD50 is the dose expected to kill half of the subjects tested. A higher LD50 goes with lower toxicity. In general, IC50 refers to the concentration needed to halve the response being measured. High values mean weaker potency in that assay, low ones greater potency in that assay. `CC[C@H](C)[C@@H]1NC(=O)[C@H](CCCCN)NC(=O)[C@@H](NC(=O)[C@H](CCCCN)NC(=O)[C@@H](NC(=O)[C@H](CC(N)=O)NC(=O)[C@@H](NC(=O)[C@@H](NC(=O)[C@@H](NC(=O)CN)C(C)C)[C@@H](C)CC)[C@@H](C)CC)C(C)C)CSSC[C@@H]2NC(=O)[C@H](CCCCN)NC(=O)CNC(=O)[C@H](Cc3ccccc3)NC(=O)[C@H](CCCNC(=N)N)NC(=O)[C@H](CCSC)NC(=O)CNC(=O)[C@H](C)NC(=O)[C@H](CC(=O)O)NC(=O)[C@H](CCCCN)NC(=O)[C@@H]3CSSC[C@@H](C(=O)N[C@@H](Cc4ccc(O)cc4)C(=O)N4CCC[C@H]4C(=O)N[C@@H](CCCCN)C(=O)O)NC(=O)[C@H](Cc4c[nH]cn4)NC(=O)[C@H](CSSC[C@H](NC(=O)[C@H](CCC(N)=O)NC(=O)[C@H](CCCNC(=N)N)NC(=O)[C@H](CO)NC1=O)C(=O)N[C@@H](CC(C)C)C(=O)N[C@@H](CCCCN)C(=O)N1CCC[C@H]1C(=O)N3)NC(=O)[C@H](CCCCN)NC(=O)CNC(=O)[C@H](CC(N)=O)NC(=O)[C@H](CCSC)NC2=O` (H-GVIINVKCKISRQCLKPCKDAGMRFGKCMNGKCHCYPK-OH; disulfide 8-28, 14-33, 18-35) registered an LD50 in series [1] of 9 µg/kg. In addition, the concentration for half-maximal inhibition (IC50) in series [2] amounted to 0.122 ± 0.007 nM; in series [3] it was 231.8 ± 0.1 nM; in series [4], 34.4 ± 0.3 nM; in series [5], 885 ± 18 nM.
With `CC[C@H](C)[C@@H]1NC(=O)[C@H](CCCCN)NC(=O)[C@@H](NC(=O)[C@H](CCCCN)NC(=O)[C@@H](NC(=O)[C@H](CC(N)=O)NC(=O)[C@@H](NC(=O)[C@@H](NC(=O)[C@@H](NC(=O)CN)C(C)C)[C@@H](C)CC)[C@@H](C)CC)C(C)C)CSSC[C@@H]2NC(=O)[C@H](CCCCN)NC(=O)CNC(=O)[C@H](Cc3ccccc3)NC(=O)[C@H](CCCNC(=N)N)NC(=O)[C@H](CCSC)NC(=O)CNC(=O)[C@H](C)NC(=O)[C@H](CC(=O)O)NC(=O)[C@H](CCCCN)NC(=O)[C@@H]3CSSC[C@@H](C(=O)N[C@H](C(=O)N4CCC[C@H]4C(=O)N[C@@H](CCCCN)C(=O)O)[C@@H](C)O)NC(=O)[C@H](Cc4c[nH]cn4)NC(=O)[C@H](CSSC[C@H](NC(=O)[C@H](CCC(N)=O)NC(=O)[C@H](CCCNC(=N)N)NC(=O)[C@H](CO)NC1=O)C(=O)N[C@@H](CC(C)C)C(=O)N[C@@H](CCCCN)C(=O)N1CCC[C@H]1C(=O)N3)NC(=O)[C@H](CCCCN)NC(=O)CNC(=O)[C@H](CC(N)=O)NC(=O)[C@H](CCSC)NC2=O` (H-GVIINVKCKISRQCLKPCKDAGMRFGKCMNGKCHCTPK-OH; disulfide 8-28, 14-33, 18-35), the 50% lethal dose (LD50) in series [1] worked out at 2.5 µg/kg. For the same compound, the “activity on Kv1.3 channel (in words)” value in series [2] was “the most potent Kv1.3 channel blocker characterized so far”. Further, the “potency on the Kv1.3 channel relative to OsK1” value in series [2] (compared with OsK1) is “about five times more potent”. The compound also came in with an IC50 in [6] of over 1000 nM. Moreover, the “activity on IK1 (in words)” value in [5] is listed as “shares the same activity on IK1”.
In the case of `CC[C@H](C)[C@@H]1NC(=O)[C@H](CCCCN)NC(=O)[C@@H](NC(=O)[C@H](CCCCN)NC(=O)[C@@H](NC(=O)[C@H](CC(N)=O)NC(=O)[C@@H](NC(=O)[C@@H](NC(=O)[C@@H](NC(=O)CN)C(C)C)[C@@H](C)CC)[C@@H](C)CC)C(C)C)CSSC[C@@H]2NC(=O)[C@H](CCCCN)NC(=O)CNC(=O)[C@H](Cc3ccccc3)NC(=O)[C@H](CCCNC(=N)N)NC(=O)[C@H](CCSC)NC(=O)CNC(=O)[C@H](C)NC(=O)[C@H](CC(=O)O)NC(=O)[C@H](CCCCN)NC(=O)[C@@H]3CSSC[C@@H](C(=O)N[C@H](C(=O)N4CCC[C@H]4C(=O)N[C@@H](CCCCN)C(N)=O)[C@@H](C)O)NC(=O)[C@H](Cc4c[nH]cn4)NC(=O)[C@H](CSSC[C@H](NC(=O)[C@H](CCC(N)=O)NC(=O)[C@H](CCCNC(=N)N)NC(=O)[C@H](CO)NC1=O)C(=O)N[C@@H](CC(C)C)C(=O)N[C@@H](CCCCN)C(=O)N1CCC[C@H]1C(=O)N3)NC(=O)[C@H](CCCCN)NC(=O)CNC(=O)[C@H](CC(N)=O)NC(=O)[C@H](CCSC)NC2=O` (H-GVIINVKCKISRQCLKPCKDAGMRFGKCMNGKCHCTPK-NH2; disulfide 8-28, 14-33, 18-35), the LD50 in series [1] worked out at 2.25 µg/kg. Further, the figures for the IC50 in [2], in series [4] and in [5] were 0.075 ± 0.006 nM, 0.36 ± 0.04 nM and over 1000 nM, respectively.
Regarding [A^34]-OsK1 (peptide), the ID50 was over 1000 nM in [7]; 65 nM in [8]; over 1000 nM in series [9]; 15.8 nM in [10]; 0.034 nM in [11].
For the compound `CC[C@H](C)[C@@H]1NC(=O)[C@H](CCCCN)NC(=O)[C@@H](NC(=O)[C@H](CCCCN)NC(=O)[C@@H](NC(=O)[C@H](CC(N)=O)NC(=O)[C@@H](NC(=O)[C@H](CCCCN)NC(=O)[C@@H](NC(=O)CN)C(C)C)[C@@H](C)CC)C(C)C)CSSC[C@@H]2NC(=O)[C@H](CCCCN)NC(=O)CNC(=O)[C@H](Cc3ccccc3)NC(=O)[C@H](CCCNC(=N)N)NC(=O)[C@H](CCSC)NC(=O)CNC(=O)[C@H](C)NC(=O)[C@H](CC(=O)O)NC(=O)[C@H](CCCCN)NC(=O)[C@@H]3CSSC[C@@H](C(=O)N[C@H](C(=O)N4CCC[C@H]4C(=O)N[C@@H](CCCCN)C(N)=O)[C@@H](C)O)NC(=O)[C@H](Cc4c[nH]cn4)NC(=O)[C@H](CSSC[C@H](NC(=O)[C@H](CCC(N)=O)NC(=O)[C@H](CCCNC(=N)N)NC(=O)[C@H](CO)NC1=O)C(=O)N[C@@H](CC(C)C)C(=O)N[C@@H](CCCCN)C(=O)N1CCC[C@H]1C(=O)N3)NC(=O)[C@H](CCCCN)NC(=O)CNC(=O)[C@H](CC(N)=O)NC(=O)[C@H](CCSC)NC2=O` (H-GVKINVKCKISRQCLKPCKDAGMRFGKCMNGKCHCTPK-NH2; disulfide 8-28, 14-33, 18-35), in series [1], the 50% lethal dose (LD50) stood at 2.25 µg/kg. The half-inhibitory concentration (IC50) in series [6] and in [5] was over 1000 nM in each case.
